`C#CCN(C(=O)OC(C)(C)C)c1sc(-c2cncnc2)nc1Cl` [CA10, tert-Butyl (4-chloro-2-(pyrimidin-5-yl)thiazol-5-yl)(prop-2-yn-1-yl) carbamate] had a melting point of 80 to 83 °C.

These data come from patent publication US9137998B2, “Pesticidal compositions and related methods” (DOW AGROSCIENCES LLC, priority 2013, dated 2015).
